Source: ChEMBL document CHEMBL5385875, “Tumor killing by a dietary curcumin mono-carbonyl analog that works as a selective ROS generator via TrxR inhibition” (Eur J Med Chem, 2023)
Calls of active or inactive are those of the source. No cut-off for these calls is given here.

How the values were obtained:
NCI-H460 [1] = assay: Antitumor activity against human NCI-H460 cells xenografted in BALB/c nude mouse assessed as induction of apoptosis at 5 to 15 mg/kg by H and E staining based analysis; type: functional, organism-based; conditions: dose 5-15 mg/kg
NCI-H460 [2] = assay: Upregulation of Bax expression in human NCI-H460 cells at 1 to 2 uM measured after 48 hrs in presence of NAC by immunoblot analysis; type: functional, cell-based; conditions: dose 1-2 µM
A549 = assay: Cytotoxicity against human A549 cells assessed as reduction in cell viability incubated for 48 hrs by MTT assay; type: functional, cell-based; conditions: A549, 48 h
[3] = Cytotoxicity against human MRC5 cells assessed as reduction in cell viability incubated for 48 hrs by MTT assay; type: toxicity, cell-based
NCI-H460 [4] = assay: Cytotoxicity against human NCI-H460 cells assessed as reduction in cell viability incubated for 48 hrs by MTT assay; type: functional, cell-based; conditions: NCI-H460, 48 h
[5] = Toxicity in BALB/c nude mouse assessed as effect on animal activity at 5 to 15 mg/kg, ip measured every two days for 27 days; type: organism-based; conditions: in vivo, 648 h, dose 5-15 mg/kg, time 27 day
NCI-H460 [6] = assay: Cytotoxicity against human NCI-H460 cells assessed as reduction in cell viability at 0.5 to 1 uM measured after 48 hrs in presence of necrostatin-1 by MTT assay; type: functional, cell-based; conditions: dose 0.5-1 µM
NCI-H460 [7] = assay: Cytotoxicity against human NCI-H460 cells assessed as reduction in cell viability at 0.5 to 1 uM measured after 48 hrs in presence of erastin by MTT assay; type: functional, cell-based; conditions: dose 0.5-1 µM
[8] = Toxicity in BALB/c nude mouse assessed as effect on liver at 5 to 15 mg/kg, ip measured every two days for 27 days by H and E staining based analysis; type: organism-based; conditions: in vivo, 648 h, dose 5-15 mg/kg, time 27 day
NCI-H460 [9] = assay: Induction of apoptosis in human NCI-H460 cells assessed as reduction of mitochondrial membrane potential at 0.5 to 2 uM incubated for 12 to 36 hrs in presence of NAC by JC-1 staining based flow cytometry analysis; type: functional, cell-based; conditions: dose 0.5-2 µM, time 12-36 hrs
[10] = Toxicity in BALB/c nude mouse assessed as effect on kidney at 5 to 15 mg/kg, ip measured every two days for 27 days by H and E staining based analysis; type: organism-based; conditions: in vivo, 648 h, dose 5-15 mg/kg, time 27 day
NCI-H460 [11] = assay: Downregulation of Bcl-2 expression in human NCI-H460 cells at 1 to 2 uM measured after 48 hrs by immunoblot analysis; type: functional, cell-based; conditions: dose 1-2 µM
NCI-H460 [12] = assay: Induction of intracellular ROS accumulation in human NCI-H460 cells at 0.5 to 2 uM by DCFH-DA dye based fluorescence assay; type: functional, cell-based; conditions: dose 0.5-2 µM, time 1-12 hrs, TDE = time-dependent effect
[13] = Inhibition of TrxR protein expression in human NCI-H460 cells at 2 uM measured after 6 hrs by immunoblot analysis relative to control; type: functional
NCI-H460 [14] = assay: Upregulation of Bax expression in human NCI-H460 cells at 1 to 2 uM measured after 48 hrs by immunoblot analysis; type: functional, cell-based; conditions: dose 1-2 µM
NCI-H460 [15] = assay: Cytotoxicity against human NCI-H460 cells assessed as reduction in cell viability at 0.5 to 2 uM incubated for 48 hrs in presence of N-acetylcysteine by MTT assay; type: functional, cell-based; conditions: dose 0.5-2 µM
[16] = Toxicity in BALB/c nude mouse assessed as effect on body weight at 5 to 15 mg/kg, ip measured every two days for 27 days; type: organism-based; conditions: in vivo, 648 h, dose 5-15 mg/kg, time 27 day
NCI-H460 [17] = assay: Induction of apoptosis in human NCI-H460 cells assessed as reduction of mitochondrial membrane potential at 0.5 to 2 uM by JC-1 staining based flow cytometry analysis; type: functional, cell-based; conditions: dose 0.5-2 µM, time 12-36 hrs, TDE = time-dependent effect
MRC5 [18] = assay: Induction of ROS accumulation in human MRC5 cells assessed as reduction in GSH levels by measuring yellow green fluorescence incubated for 9 hrs by fluorescence microscope based analysis; type: functional, cell-based
NCI-H460 [19] = assay: Inhibition of TrxR protein expression in human NCI-H460 cells measured after 6 hrs by immunoblot analysis; type: functional, cell-based; conditions: dose 0.5-2 µM
[20] = Toxicity in BALB/c nude mouse assessed as effect on kidney at 5 to 15 mg/kg, ip measured every two days for 27 days; type: organism-based; conditions: in vivo, 648 h, dose 5-15 mg/kg, time 27 day
[21] = target: Thioredoxin reductase (Homo sapiens) (UniProt Q16881+Q9NNW7+Q86VQ6); assay: Inhibition of TrxR in human NCI-H460 cells at 2 uM measured after 6 hrs by DTNB reduction assay relative to control; type: cell-based
MRC5 [22] = assay: Induction of ferroptosis in human MRC5 cells assessed as increase in intracellular […] by measuring increase in red fluorescence intensity at 2 uM incubated for 40 hrs by C11-BODIPY staining based microscopy analysis; type: functional, cell-based
NCI-H460 [23] = assay: Antitumor activity against human NCI-H460 cells xenografted in BALB/c nude mouse assessed as downregulation of GPX4 expression at 5 to 15 mg/kg by immunohistochemical staining based analysis; type: functional, organism-based; conditions: dose 5-15 mg/kg
NCI-H460 [24] = assay: Cytotoxicity against human NCI-H460 cells assessed as reduction in cell viability at 0.5 to 2 uM incubated for 48 hrs in presence of alpha tocopherol by MTT assay; type: functional, cell-based; conditions: dose 0.5-2 µM
NCI-H460 [25] = assay: Induction of ferroptosis in human NCI-H460 cells assessed as fold increase in MDA levels at 2 uM measured after 40 hrs by MDA assay; type: functional
NCI-H460 [26] = assay: Antitumor activity against human NCI-H460 cells xenografted in BALB/c nude mouse assessed as inhibition of tumor formation administered as IP dose and measured every two days for 27 days; type: functional; conditions: dose 5-15 mg/kg, time 27.0 day
[27] = Toxicity in BALB/c nude mouse assessed as effect on animal diet status at 5 to 15 mg/kg, ip measured every two days for 27 days; type: organism-based; conditions: in vivo, 648 h, dose 5-15 mg/kg, time 27 day
[28] = Toxicity in BALB/c nude mouse assessed as animal death at 5 to 15 mg/kg, ip measured every two days for 27 days; type: organism-based; conditions: in vivo, 648 h, dose 5-15 mg/kg, time 27 day
[29] = Toxicity in BALB/c nude mouse assessed as effect on hair colour at 5 to 15 mg/kg, ip measured every two days for 27 days; type: organism-based; conditions: in vivo, 648 h, dose 5-15 mg/kg, time 27 day

**Q.** Which results are given for O=C1/C(=C/c2cccc(C(F)(F)F)c2)CNC/C1=C\c1cccc(C(F)(F)F)c1?
**A.** Activity (NCI-H460 [1]): Active; Activity (NCI-H460 [2]): inactive; IC50 (A549): 5.8 µM; IC50 at 48 h [3]: 14.1 µM; IC50 (NCI-H460 [4]): 0.44 µM; Activity [5]: Non-Toxic; Activity (NCI-H460 [6]): inactive; Activity (NCI-H460 [7]): Active; Activity [8]: Non-Toxic; Activity (NCI-H460 [9]): inactive; Activity [10]: Non-Toxic; Activity (NCI-H460 [11]): Active; Activity (NCI-H460 [12]): Tde; inhibition at 2 µM [13]: 69%; Activity (NCI-H460 [14]): Active; Activity (NCI-H460 [15]): inactive; Activity [16]: Non-Toxic; Activity (NCI-H460 [17]): Tde; Activity (MRC5 [18]): inactive; inhibition (NCI-H460 [19]): Dose-Dependent Effect; Activity [20]: Non-Toxic; inhibition [21]: 59%; Activity (MRC5 [22]): inactive; Activity (NCI-H460 [23]): Active; Activity (NCI-H460 [24]): inactive; fold change (FC) (NCI-H460 [25]): 3.5; Activity (NCI-H460 [26]): Dose-Dependent Effect; Activity [27]: Non-Toxic; Activity [28]: Non-Toxic; Activity [29]: Non-Toxic
